Assay results: patent US8530489B2 (Vertex Pharmaceuticals Incorporated, priority 2006, dated 2013)

Molecular target: PLK1 (Homo sapiens, UniProt P53350)
Experiment: PLK1 Inhibition Assay I (radioactive-phosphate incorporation)
Assay type: biochemical
Details: Ki(app); PLK1 Inhibition Assay I or II (table does not say which)
Procedure: The compounds of the present invention are evaluated as inhibitors of human PLK kinase using the following assays.
Compounds were screened for their ability to inhibit PLK1 using a radioactive-phosphate incorporation assay. Assays were carried out in a mixture of 25 mM HEPES (pH 7.5), 10 mM MgCl2, and 1 mM DTT. Final substrate concentrations were 350 μM [γ-33P]ATP (136 mCi 33P ATP/mmol ATP, Amersham Pharmacia Biotech/Sigma Chemicals) and 450 μM peptide (KKKISDELMDATFADQEAK) [SEQ. ID:1]. Assays were carried out at 25° C. in the presence of 2 nM PLK1. An assay stock buffer solution was prepared containing all of the reagents listed above, with the exception of ATP and the test compound of interest. 30 μL of the stock solution was placed in a 96 well plate followed by addition of 2 μL of DMSO stock containing serial dilutions of the test compound (typically starting from a final concentration of 10 μM with 2-fold serial dilutions) in duplicate (final DMSO concentration 5%). The plate was pre-incubated for 10 minutes at 25° C. and the reaction initiated by addition of 8 μL [γ-33P]ATP (final concentration 350 μM).
The reaction was stopped after 240 minutes by the addition of 100 μL 0.14M phosphoric acid. A multiscreen phosphocellulose filter 96-well plate (Millipore, Cat No. MAPHN0B50) was pretreated with 100 μL 0.1 M phosphoric acid prior to the addition of 125 μL of the stopped assay mixture. The plate was washed with 4×200 μL 0.1 M phosphoric acid. After drying, 100 μL Optiphase ‘SuperMix’ liquid scintillation cocktail (Perkin Elmer) was added to the well prior to scintillation counting (1450 Microbeta Liquid Scintillation Counter, Wallac).
After removing mean background values for all of the data points, Ki(app) data were calculated from non-linear regression analysis of the initial rate data using the Prism software package (GraphPad Prism version 3.0cx for Macintosh, GraphPad Software, San Diego Calif., USA).

Chain of PLK1 (P53350 whole entry): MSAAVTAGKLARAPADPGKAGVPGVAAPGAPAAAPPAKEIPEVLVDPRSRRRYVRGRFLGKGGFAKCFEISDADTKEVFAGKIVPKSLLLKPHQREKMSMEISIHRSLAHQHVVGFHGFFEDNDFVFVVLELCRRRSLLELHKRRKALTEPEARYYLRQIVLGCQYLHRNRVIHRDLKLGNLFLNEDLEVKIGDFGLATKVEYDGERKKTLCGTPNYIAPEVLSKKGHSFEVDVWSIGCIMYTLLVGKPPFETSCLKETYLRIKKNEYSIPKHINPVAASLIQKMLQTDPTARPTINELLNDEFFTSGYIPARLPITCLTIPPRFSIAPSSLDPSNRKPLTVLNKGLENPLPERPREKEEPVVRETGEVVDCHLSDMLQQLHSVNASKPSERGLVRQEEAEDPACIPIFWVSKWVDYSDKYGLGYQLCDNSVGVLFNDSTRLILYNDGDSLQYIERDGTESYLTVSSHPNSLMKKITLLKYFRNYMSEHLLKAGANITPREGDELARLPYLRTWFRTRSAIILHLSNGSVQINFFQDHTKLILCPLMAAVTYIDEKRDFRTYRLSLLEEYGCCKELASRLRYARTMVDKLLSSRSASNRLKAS

SMILES	Ki [nM]
C[C@@H](Nc1ncc(C#N)c(-c2c[nH]c3ncc(C(F)(F)F)cc23)n1)C1CCN(C(=O)[C@H](N)CO)CC1 [Compound I-240, 2-((R)-1-(1-((R)-2-amino-3-hydroxypropanoyl)piperidin-4-yl)ethylamino)-4-(5-(trifluoromethyl)-1H-pyrrolo[2,3-b]pyridin-3-yl)pyrimidine-5-carbonitrile]	< 3
CC(Nc1ncc(C#N)c(-c2c[nH]c3ncc(C(F)(F)F)cc23)n1)c1ccc(O)c(Cl)c1 (stereo not shown) [Compound I-122, 2-(1-(3-chloro-4-hydroxyphenyl)ethylamino)-4-(5-(trifluoromethyl)-1H-pyrrolo[2,3-b]pyridin-3-yl)pyrimidine-5-carbonitrile]	< 3
C[C@@H](Nc1ncc(C#N)c(-c2c[nH]c3ncc(C(F)(F)F)cc23)n1)C1CCN(C(=O)[C@@H](N)CC#N)CC1 [Compound I-255, 2-((R)-1-(1-((S)-2-amino-3-cyanopropanoyl)piperidin-4-yl)ethylamino)-4-(5-(trifluoromethyl)-1H-pyrrolo[2,3-b]pyridin-3-yl)pyrimidine-5-carbonitrile]	< 3
N#Cc1cnc(NC[C@H]2CC[C@@H](O)C2)nc1-c1c[nH]c2ncc(C(F)(F)F)cc12 [Compound I-81, 2-(((1S,3R)-3-hydroxycyclopentyl)methylamino)-4-(5-(trifluoromethyl)-1H-pyrrolo[2,3-b]pyridin-3-yl)pyrimidine-5-carbonitrile]	3 to 40
C[C@@H](Nc1ncc(C#N)c(-c2c[nH]c3ncc(C(F)(F)F)cc23)n1)C1CCN(C(=O)C(C)(C)O)CC1 [Compound I-206, 2-((R)-1-(1-(2-hydroxy-2-methylpropanoyl)piperidin-4-yl)ethylamino)-4-(5-(trifluoromethyl)-1H-pyrrolo[2,3-b]pyridin-3-yl)pyrimidine-5-carbonitrile]	< 3
CC[C@H](O)C(=O)N1CCC([C@@H](C)Nc2ncc(C#N)c(-c3c[nH]c4ncc(C(F)(F)F)cc34)n2)CC1 [Compound I-217, 2-((R)-1-(1-((S)-2-hydroxybutanoyl)piperidin-4-yl)ethylamino)-4-(5-(trifluoromethyl)-1H-pyrrolo[2,3-b]pyridin-3-yl)pyrimidine-5-carbonitrile]	< 3
N#Cc1cnc(NC[C@@H](O)CO)nc1-c1c[nH]c2ncc(C(F)(F)F)cc12 [Compound I-115, 2-((R)-2,3-dihydroxypropylamino)-4-(5-(trifluoromethyl)-1H-pyrrolo[2,3-b]pyridin-3-yl)pyrimidine-5-carbonitrile]	3 to 40
C[C@@H](Nc1ncc(C#N)c(-c2c[nH]c3ncc(C(F)(F)F)cc23)n1)C1CCN(C(=O)[C@@H]2CCC[C@@H]2N)CC1 [Compound I-246, 2-((R)-1-(1-((1R,2S)-2-aminocyclopentanecarbonyl)piperidin-4-yl)ethylamino)-4-(5-(trifluoromethyl)-1H-pyrrolo[2,3-b]pyridin-3-yl)pyrimidine-5-carbonitrile]	< 3
N#Cc1cnc(NCc2ccccc2)nc1-c1c[nH]c2ncc(C(F)(F)F)cc12 [Compound I-1, 2-(benzylamino)-4-(5-(trifluoromethyl)-1H-pyrrolo[2,3-b]pyridin-3-yl)pyrimidine-5-carbonitrile]	> 40
C#CCN1CCC(C(C)Nc2ncc(C#N)c(-c3c[nH]c4ncc(C(F)(F)F)cc34)n2)CC1 (stereo not shown) [Compound I-178, 2-(1-(1-(prop-2-ynyl)piperidin-4-yl)ethylamino)-4-(5-(trifluoromethyl)-1H-pyrrolo[2,3-b]pyridin-3-yl)pyrimidine-5-carbonitrile]	3 to 40
N#Cc1cnc(NC2CCC(O)CC2)nc1-c1c[nH]c2ncc(C(F)(F)F)cc12 (stereo not shown) [Compound I-95, 2-(4-hydroxycyclohexylamino)-4-(5-(trifluoromethyl)-1H-pyrrolo[2,3-b]pyridin-3-yl)pyrimidine-5-carbonitrile]	3 to 40
CCN1CCN(c2ccc([C@@H](C)Nc3ncc(C#N)c(-c4c[nH]c5ncc(C(F)(F)F)cc45)n3)cn2)CC1 [Compound I-285, 2-((R)-1-(6-(4-ethylpiperazin-1-yl)pyridin-3-yl)ethylamino)-4-(5-(trifluoromethyl)-1H-pyrrolo[2,3-b]pyridin-3-yl)pyrimidine-5-carbonitrile]	< 3
CCC(CO)Nc1ncc(C#N)c(-c2c[nH]c3ncc(C(F)(F)F)cc23)n1 (stereo not shown) [Compound I-39, 2-(1-hydroxybutan-2-ylamino)-4-(5-(trifluoromethyl)-1H-pyrrolo[2,3-b]pyridin-3-yl)pyrimidine-5-carbonitrile]	3 to 40
CC(Nc1ncc(C#N)c(-c2c[nH]c3ncc(C(F)(F)F)cc23)n1)c1ccc(S(C)(=O)=O)cc1 (stereo not shown) [Compound I-155, 2-(1-(4-(methylsulfonyl)phenyl)ethylamino)-4-(5-(trifluoromethyl)-1H-pyrrolo[2,3-b]pyridin-3-yl)pyrimidine-5-carbonitrile]	< 3
C[C@@H](Nc1ncc(C#N)c(-c2c[nH]c3ncc(C(F)(F)F)cc23)n1)c1ccc(C(=O)NC2CC2)cc1 [Compound I-171, 4-((1R)-1-(5-cyano-4-(5-(trifluoromethyl)-1H-pyrrolo[2,3-b]pyridin-3-yl)pyrimidin-2-ylamino)ethyl)-N-cyclopropylbenzamide]	3 to 40
C[C@@H](Nc1ncc(C#N)c(-c2c[nH]c3ncc(C(F)(F)F)cc23)n1)[C@H]1CC[C@@H](NC(=O)CO)CC1 [Compound I-212, N-((1S,4s)-4-((1R)-1-(5-cyano-4-(5-(trifluoromethyl)-1H-pyrrolo[2,3-b]pyridin-3-yl)pyrimidin-2-ylamino)ethyl)cyclohexyl)-2-hydroxyacetamide]	< 3
COCC(C)Nc1ncc(C#N)c(-c2c[nH]c3ncc(C(F)(F)F)cc23)n1 (stereo not shown) [Compound I-82, 2-(1-methoxypropan-2-ylamino)-4-(5-(trifluoromethyl)-1H-pyrrolo[2,3-b]pyridin-3-yl)pyrimidine-5-carbonitrile]	3 to 40
CNCC(=O)N1CCC(C(C)Nc2ncc(C#N)c(-c3c[nH]c4ncc(C(F)(F)F)cc34)n2)CC1 (stereo not shown) [Compound I-189, 2-(1-(1-(2-(methylamino)acetyl)piperidin-4-yl)ethylamino)-4-(5-(trifluoromethyl)-1H-pyrrolo[2,3-b]pyridin-3-yl)pyrimidine-5-carbonitrile]	< 3
N#Cc1cnc(Sc2ccccc2Br)nc1-c1c[nH]c2ncc(C(F)(F)F)cc12 [II-7, 2-(2-bromophenylthio)-4-(5-(trifluoromethyl)-1H-pyrrolo[2,3-b]pyridin-3-yl)pyrimidine-5-carbonitrile]	> 40
N#Cc1cnc(NCCN2CCOCC2)nc1-c1c[nH]c2ncc(C(F)(F)F)cc12 [Compound I-69, 2-(2-morpholinoethylamino)-4-(5-(trifluoromethyl)-1H-pyrrolo[2,3-b]pyridin-3-yl)pyrimidine-5-carbonitrile]	> 40
N#Cc1cnc(SC2CCCCC2)nc1-c1c[nH]c2ncc(C(F)(F)F)cc12 [II-13, 2-(cyclohexylthio)-4-(5-(trifluoromethyl)-1H-pyrrolo[2,3-b]pyridin-3-yl)pyrimidine-5-carbonitrile]	> 40
CCN(Cc1ccccc1)c1ncc(C#N)c(-c2c[nH]c3ncc(C(F)(F)F)cc23)n1 [Compound I-11, 2-(benzyl(ethyl)amino)-4-(5-(trifluoromethyl)-1H-pyrrolo[2,3-b]pyridin-3-yl)pyrimidine-5-carbonitrile]	> 40
